Tests used:
Assay type in all cases: in vivo
[1] = test system: redroot pigweed (Amaranthus retroflexus, AMARE); test: Pre-emerge test, greenhouse herbicide activity screening; details: phytotoxicity rating 0-100, 14 days after application
Method in brief: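 Visual ratings on a 0-100 scale (0 no damage, 100 all plants dead) were taken at 14 days after treatment. Rates of 15-1000 g ai/ha in acetone, 187 l/ha, were sprayed onto soil one day after planting (pre-emerge) or onto 2-3 leaf plants with 0.25% v/v surfactant (post-emerge).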

[2] = test system: barnyardgrass (Echinochloa crus-galli, ECHCG); test: as above; details: phytotoxicity rating 0-100, 14 days after application
Method in brief: (§1)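 Fourteen days after spraying, crop and weed injury was graded visually from 0, no effect, to 100, every plant dead. Test substances were dissolved in acetone and applied at 15–1000 g ai/ha with a flat-fan nozzle. Application was either pre-emergence, one day after sowing, or post-emergence at the 2–3 leaf stage.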

[3] = test system: green foxtail (Setaria viridis, SETVI); test: as above; details: phytotoxicity rating 0-100, 14 days after application
Method in brief: as §1

[4] = test system: ivyleaf morningglory (Ipomoea hederacea, IPOHE); test: as above; details: phytotoxicity rating 0-100, 14 days after application
Method in brief: as §1

[5] = test system: johnsongrass (Sorghum halepense, SORHA); test: as above; details: phytotoxicity rating 0-100, 14 days after application
Method in brief: as §1

[6] = test system: lambsquarters (Chenopodium album, CHEAL); test: as above; details: phytotoxicity rating 0-100, 14 days after application
Method in brief: as §1

[7] = test system: large crabgrass (Digitaria sanguinalis, DIGSA); test: as above; details: phytotoxicity rating 0-100, 14 days after application
Method in brief: as §1

[8] = test system: sicklepod (Cassia obtusifolia, CASOB); test: as above; details: phytotoxicity rating 0-100, 14 days after application
Method in brief: as §1

[9] = test system: velvetleaf (Abutilon theophrasti, ABUTH); test: as above; details: phytotoxicity rating 0-100, 14 days after application
Method in brief: as §1

[10] = test system: field corn (Zea mays L., var. Dekalb 535, CORN); test: Pre-emerge test, crop safety; details: crop damage rating 0-100, 14 days after application
Method in brief: (§2)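 Compounds in acetone were track-sprayed at 15-1000 g ai/ha (187 l/ha) on sandy loam pots: pre-emerge one day after seeding, post-emerge at 2-3 leaf stage with 0.25% v/v non-ionic surfactant. Phytotoxicity was rated 14 days later on a 0 (no damage) to 100 (complete death) scale.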

[11] = test system: upland rice (Oryza sp., var. Tebonnet, RICE); test: Pre-emerge test, crop safety; details: crop damage rating 0-100, 14 days after application
Method in brief: as §2

[12] = test system: barnyardgrass (Echinochloa crus-galli, ECHCG); test: Post-emerge test, greenhouse herbicide activity screening; details: post-emerge, 14 days after application, rating scale 0-100
Method in brief: as §1

[13] = test system: green foxtail (Setaria viridis, SETVI); test: as above; details: post-emerge, 14 days after application, rating scale 0-100
Method in brief: as §1

[14] = test system: ivyleaf morningglory (Ipomoea hederacea, IPOHE); test: as above; details: post-emerge, 14 days after application, rating scale 0-100
Method in brief: as §1

[15] = test system: johnsongrass (Sorghum halepense, SORHA); test: as above; details: post-emerge, 14 days after application, rating scale 0-100
Method in brief: as §1

[16] = test system: lambsquarters (Chenopodium album, CHEAL); test: as above; details: post-emerge, 14 days after application, rating scale 0-100
Method in brief: as §1

[17] = test system: large crabgrass (Digitaria sanguinalis, DIGSA); test: as above; details: post-emerge, 14 days after application, rating scale 0-100
Method in brief: as §1

[18] = test system: redroot pigweed (Amaranthus retroflexus, AMARE); test: as above; details: post-emerge, 14 days after application
Method in brief: as §1

[19] = test system: sicklepod (Cassia obtusifolia, CASOB); test: as above; details: post-emerge, 14 days after application, rating scale 0-100
Method in brief: as §1

[20] = test system: velvetleaf (Abutilon theophrasti, ABUTH); test: as above; details: post-emerge, 14 days after application, rating scale 0-100
Method in brief: as §1

[21] = test system: field corn (Zea mays L., var. Dekalb 535, CORN); test: Post-emerge test, crop safety; details: post-emerge, 14 days after application, rating scale 0-100
Method in brief: as §1

[22] = test system: upland rice (Oryza sp., var. Tebonnet, RICE); test: Post-emerge test, crop safety; details: post-emerge, 14 days after application, rating scale 0-100
Method in brief: as §1

Cn1c(C(F)(F)F)cc(=O)n(-c2c(F)cc(Cl)c(Oc3ncccc3[N+](=O)[O-])c2NC(=O)c2ccc3ccccc3c2)c1=O [2-199]
30: phytotoxicity rating DIGSA ([17]; 63 g ai/ha) | phytotoxicity rating CORN (crop damage) ([21]; 63 g ai/ha)
50: phytotoxicity rating SETVI ([13]; 63 g ai/ha)
60: phytotoxicity rating ECHCG ([12]; 63 g ai/ha)
80: phytotoxicity rating RICE (crop damage) ([22]; 63 g ai/ha)
40: phytotoxicity rating SORHA ([15]; 63 g ai/ha)
90: phytotoxicity rating SETVI ([13]; 250 g ai/ha) | phytotoxicity rating CORN (crop damage) ([21]; 250 g ai/ha) | phytotoxicity rating RICE (crop damage) ([22]; 250 g ai/ha)
99: Pre-emerge Herbicidal Activity ECHCG ([2]; 63 g ai/ha) | Pre-emerge Herbicidal Activity RICE ([11]; 63 g ai/ha)
100: Pre-emerge Herbicidal Activity AMARE ([1]; 63 g ai/ha) | Pre-emerge Herbicidal Activity AMARE ([1]; 250 g ai/ha) | Pre-emerge Herbicidal Activity ECHCG ([2]; 250 g ai/ha) | Pre-emerge Herbicidal Activity SETVI ([3]; 63 g ai/ha) | Pre-emerge Herbicidal Activity SETVI ([3]; 250 g ai/ha) | Pre-emerge Herbicidal Activity IPOHE ([4]; 63 g ai/ha) | Pre-emerge Herbicidal Activity IPOHE ([4]; 250 g ai/ha) | Pre-emerge Herbicidal Activity SORHA ([5]; 63 g ai/ha) | Pre-emerge Herbicidal Activity SORHA ([5]; 250 g ai/ha) | Pre-emerge Herbicidal Activity CHEAL ([6]; 63 g ai/ha) | Pre-emerge Herbicidal Activity CHEAL ([6]; 250 g ai/ha) | Pre-emerge Herbicidal Activity DIGSA ([7]; 63 g ai/ha) | Pre-emerge Herbicidal Activity DIGSA ([7]; 250 g ai/ha) | Pre-emerge Herbicidal Activity CASOB ([8]; 63 g ai/ha) | Pre-emerge Herbicidal Activity CASOB ([8]; 250 g ai/ha) | Pre-emerge Herbicidal Activity ABUTH ([9]; 63 g ai/ha) | Pre-emerge Herbicidal Activity ABUTH ([9]; 250 g ai/ha) | Pre-emerge Herbicidal Activity CORN ([10]; 250 g ai/ha) | Pre-emerge Herbicidal Activity RICE ([11]; 250 g ai/ha) | phytotoxicity rating ECHCG ([12]; 250 g ai/ha) | phytotoxicity rating IPOHE ([14]; 63 g ai/ha) | phytotoxicity rating IPOHE ([14]; 250 g ai/ha) | phytotoxicity rating CHEAL ([16]; 63 g ai/ha) | phytotoxicity rating CHEAL ([16]; 250 g ai/ha) | phytotoxicity rating AMARE ([18]; 250 g ai/ha, rating scale 0-100) | phytotoxicity rating CASOB ([19]; 63 g ai/ha) | phytotoxicity rating CASOB ([19]; 250 g ai/ha) | phytotoxicity rating ABUTH ([20]; 63 g ai/ha) | phytotoxicity rating ABUTH ([20]; 250 g ai/ha)
95: Pre-emerge Herbicidal Activity CORN ([10]; 63 g ai/ha) | phytotoxicity rating SORHA ([15]; 250 g ai/ha) | phytotoxicity rating DIGSA ([17]; 250 g ai/ha) | phytotoxicity rating AMARE ([18]; 63 g ai/ha, rating scale 0-100 (0 no damage, 100 complete death))

From US6355799B1, “Substituted benzene compounds, process for their preparation, and herbicidal and defoliant compositions containing them” (ISK Americas Incorporated, priority 1997, dated 2002)
